Laboratory results taken from patent publication US20180243273A1, “Composition for Intravesical Administration for Treating Bladder Pain” (priority 2017, published 2018).

Experiment: Storage of compositions with/without nitrogen-gassing and ascorbic acid, assay and impurities
Type: physicochemical
Conditions: phosphate buffer
Protocol: A possible beneficial effect of nitrogen-gassing during manufacturing and storage was assessed. Selected compositions were manufactured by dissolution of API via stirring for 24 h and stored after treatment with/without nitrogen at 25° C. or 6° C. for up to 28 days.
The manufactured batches consisted of phosphate buffer and vitamin E TPGS and were compared to compositions containing ascorbic acid 1%, additionally. API was used at 0.01 wt.-%, 0.02 wt.-% or 0.04 w.-%. The compositions were saturated with API, where 10 mg, 20 mg or 40 mg were dissolved in 100 g buffer containing 0.5 wt.-%, wt.-1% or 2 wt.-% vitamin E TPGS, respectively. The compositions were transferred into polystyrene bottles and stored at 25° C. or 6° C. A part of the compositions was treated with nitrogen during manufacturing and gassed with nitrogen prior to sealing (see FIG. 18). The compositions were tested for assay and purity of API after manufacturing, as well as after 7, 14 and 28 days.

[1] = vitamin E TPGS 0.5%, Asc. 1%, N2 +, API 0.01%, 6° C., t = 7 d
[2] = vitamin E TPGS 0.5%, Asc. 1%, N2 +, API 0.01%, 6° C., t = 14 d
[3] = vitamin E TPGS 0.5%, Asc. 1%, N2 +, API 0.01%, 6° C., t = 28 d
[4] = vitamin E TPGS 0.5%, Asc. 1%, N2 +, API 0.01%, 25° C., t = 7 d
[5] = vitamin E TPGS 0.5%, Asc. 1%, N2 +, API 0.01%, 25° C., t = 14 d
[6] = vitamin E TPGS 0.5%, Asc. 1%, N2 +, API 0.01%, 25° C., t = 28 d
[7] = vitamin E TPGS 0.5%, Asc. 1%, N2 +, API 0.01%, t = 0
[8] = vitamin E TPGS 0.5%, Asc. 1%, N2 −, API 0.01%, 6° C., t = 7 d
[9] = vitamin E TPGS 0.5%, Asc. 1%, N2 −, API 0.01%, 6° C., t = 14 d
[10] = vitamin E TPGS 0.5%, Asc. 1%, N2 −, API 0.01%, 6° C., t = 28 d
[11] = vitamin E TPGS 0.5%, Asc. 1%, N2 −, API 0.01%, 25° C., t = 7 d
[12] = vitamin E TPGS 0.5%, Asc. 1%, N2 −, API 0.01%, 25° C., t = 14 d
[13] = vitamin E TPGS 0.5%, Asc. 1%, N2 −, API 0.01%, 25° C., t = 28 d
[14] = vitamin E TPGS 0.5%, Asc. 1%, N2 −, API 0.01%, t = 0
[15] = vitamin E TPGS 0.5%, no Asc., N2 +, API 0.01%, 6° C., t = 28 d
[16] = vitamin E TPGS 0.5%, no Asc., N2 +, API 0.01%, 25° C., t = 7 d
[17] = vitamin E TPGS 0.5%, no Asc., N2 +, API 0.01%, 25° C., t = 14 d
[18] = vitamin E TPGS 0.5%, no Asc., N2 +, API 0.01%, t = 0
[19] = vitamin E TPGS 0.5%, no Asc., N2 −, API 0.01%, 6° C., t = 7 d
[20] = vitamin E TPGS 0.5%, no Asc., N2 −, API 0.01%, 6° C., t = 14 d
[21] = vitamin E TPGS 0.5%, no Asc., N2 −, API 0.01%, 6° C., t = 28 d
[22] = vitamin E TPGS 0.5%, no Asc., N2 −, API 0.01%, 25° C., t = 7 d
[23] = vitamin E TPGS 0.5%, no Asc., N2 −, API 0.01%, 25° C., t = 14 d
[24] = vitamin E TPGS 0.5%, no Asc., N2 −, API 0.01%, 25° C., t = 28 d
[25] = vitamin E TPGS 0.5%, no Asc., N2 −, API 0.01%, t = 0
[26] = vitamin E TPGS 1%, Asc. 1%, N2 +, API 0.02%, 6° C., t = 7 d
[27] = vitamin E TPGS 1%, Asc. 1%, N2 +, API 0.02%, 6° C., t = 14 d
[28] = vitamin E TPGS 1%, Asc. 1%, N2 +, API 0.02%, 6° C., t = 28 d
[29] = vitamin E TPGS 1%, Asc. 1%, N2 +, API 0.02%, 25° C., t = 7 d
[30] = vitamin E TPGS 1%, Asc. 1%, N2 +, API 0.02%, 25° C., t = 14 d
[31] = vitamin E TPGS 1%, Asc. 1%, N2 +, API 0.02%, 25° C., t = 28 d
[32] = vitamin E TPGS 1%, Asc. 1%, N2 +, API 0.02%, t = 0
[33] = vitamin E TPGS 1%, no Asc., N2 +, API 0.02%, 6° C., t = 7 d
[34] = vitamin E TPGS 1%, no Asc., N2 +, API 0.02%, 6° C., t = 14 d
[35] = vitamin E TPGS 1%, no Asc., N2 +, API 0.02%, 6° C., t = 28 d
[36] = vitamin E TPGS 1%, no Asc., N2 +, API 0.02%, 25° C., t = 7 d
[37] = vitamin E TPGS 1%, no Asc., N2 +, API 0.02%, 25° C., t = 14 d

## CN(C)[C@]1(c2cccc(F)c2)CC[C@]2(CC1)c1[nH]c3ccccc3c1CCN2C(=O)/C=C/c1ccccc1 [API, cis-(E)-4-(3-fluorophenyl)-2′,3′,4′,9′-tetrahydro-N,N-dimethyl-2′-(1-oxo-3-phenyl-2-propenyl)-spiro[cyclohexane-1,1′[1H]-pyrido[3,4-b]indol]-4-amine]
[1]
  Assay: 65.65 µg/mL
  Impurities: 0.65 % (a/a)
[2]
  Assay: 65.65 µg/mL
  Impurities: 29.21 % (a/a)
[3]
  Assay: 65.82 µg/mL
  Impurities: 0.70 % (a/a)
[4]
  Assay: 63.63 µg/mL
  Impurities: 1.00 % (a/a)
[5]
  Assay: 61.53 µg/mL
  Impurities: 1.74 % (a/a)
[6]
  Assay: 63.95 µg/mL
  Impurities: 1.82 % (a/a)
[7]
  Assay: 66.61 µg/mL
  Impurities: 0.58 % (a/a)
[8]
  Assay: 66.21 µg/mL
  Impurities: 0.70 % (a/a)
[9]
  Assay: 66.54 µg/mL
  Impurities: 0.83 % (a/a)
[10]
  Assay: 66.15 µg/mL
  Impurities: 0.70 % (a/a)
[11]
  Assay: 65.66 µg/mL
  Impurities: 0.53 % (a/a)
[12]
  Assay: 65.27 µg/mL
  Impurities: 1.09 % (a/a)
[13]
  Assay: 61.46 µg/mL
  Impurities: 1.36 % (a/a)
[14]
  Assay: 66.81 µg/mL
  Impurities: 0.66 % (a/a)
[15]
  Assay: 49.80 µg/mL
  Impurities: 0.54 % (a/a)
[16]
  Assay: 49.76 µg/mL
  Impurities: 0.36 % (a/a)
[17]
  Assay: 49.65 µg/mL
  Impurities: 1.19 % (a/a)
[18]
  Assay: 49.49 µg/mL
  Impurities: 0.71 % (a/a)
[19]
  Assay: 50.43 µg/mL
  Impurities: 0.63 % (a/a)
[20]
  Assay: 50.71 µg/mL
  Impurities: 0.94 % (a/a)
[21]
  Assay: 50.27 µg/mL
  Impurities: 0.52 % (a/a)
[22]
  Assay: 50.56 µg/mL
  Impurities: 0.45 % (a/a)
[23]
  Assay: 50.23 µg/mL
  Impurities: 1.13 % (a/a)
[24]
  Assay: 50.36 µg/mL
  Impurities: 1.06 % (a/a)
[25]
  Assay: 50.22 µg/mL
  Impurities: 0.68 % (a/a)
[26]
  Assay: 109.93 µg/mL
  Impurities: 0.73 % (a/a)
[27]
  Assay: 110.67 µg/mL
  Impurities: 0.90 % (a/a)
[28]
  Assay: 110.25 µg/mL
  Impurities: 0.91 % (a/a)
[29]
  Assay: 107.03 µg/mL
  Impurities: 1.04 % (a/a)
[30]
  Assay: 106.77 µg/mL
  Impurities: 1.27 % (a/a)
[31]
  Assay: 93.34 µg/mL
  Impurities: 1.79 % (a/a)
[32]
  Assay: 110.99 µg/mL
  Impurities: 0.62 % (a/a)
[33]
  Assay: 93.47 µg/mL
  Impurities: 0.64 % (a/a)
[34]
  Assay: 93.72 µg/mL
  Impurities: 0.75 % (a/a)
[35]
  Assay: 93.93 µg/mL
  Impurities: 0.58 % (a/a)
[36]
  Assay: 93.61 µg/mL
  Impurities: 0.69 % (a/a)
[37]
  Assay: 93.28 µg/mL
  Impurities: 0.86 % (a/a)
